The values below are quoted from earlier work in patent US20020090642A1, “METHODS FOR DETERMINING THE PROGNOSIS OF BREAST CANCER USING ANTIBODIES SPECIFIC FOR THYMIDYLATE SYNTHASE” (priority 1995, published 2002).

The data set deals with TS. The following applies: 24 hours post-fluorouracil therapy, tumor biopsy samples.

As for `O=c1[nH]cc(F)c(=O)[nH]1` [fluorouracil], the “increase in TS” value is listed as 2- to 6 fold.
